Values of other authors in patent US20130164384A1, “METHODS OF TREATING BOWEL DISEASES BY ADMINISTERING A BOWEL CLEANSER AND AN ANTIBIOTIC” (Salix Pharmaceuticals, Ltd., priority 2008, published 2013).
Like-named read-outs stand apart in the source and are kept apart here.

Conditions: cited from earlier work

CC(=O)Oc1ccc(C(c2ccc(OC(C)=O)cc2)c2ccccn2)cc1 [Bisacodyl]
Time to produce a bowel movement (enemas): about 20 minutes
Time to produce a bowel movement (suppositories): about an hour
